Test results as given in ChEMBL document CHEMBL5728225, “Modulators of P97 AAA ATPase activity” (2021).
Several values for one entry are separate records, joined by “and”; a condition that tells them apart may be missing. Identical values can stand only once.

Assay: Biomol Green Assay: Biomol Green (Enzo) […] formed from a biochemical reaction. Because of its high sensitivity, the assay is suitable for monitoring enzyme activities at very early substrate conversions requiring very low amount of enzymes.

| SMILES | IC50 |
| --- | --- |
| Cc1cc(OCc2cnc(SC3C=CCCC3)n2-c2cccnc2)ccc1C#CCOC(=O)NCCN1CCN(C(C)C)CC1 (stereo not drawn) | 26 nM |
| Cc1cc(OCc2nnc(CC3CCCC3)n2-c2cccnc2)ccc1C#CCNC(=O)OC(C)(C)C | 260 nM |
| Cc1cc(OCc2nnc(SC3C=CCCC3)n2-c2cccnc2)ccc1C#CCOC(=O)NN1CCN(C)CC1 (stereo not drawn) | 25 nM and 15 nM |
